Measurements from US10548999B2, “Method and apparatus for sterilizing preform” (DAI NIPPON PRINTING CO., LTD., priority 2012, dated 2020).
Like-named read-outs stand apart in the source and are kept apart here.

Key:
[1] = system: BaciLLus subtiLis
Procedure: (§1) The first chamber 5a and the second chamber 6a have size of 1000 mm width, and 1500 mm length, and 200 mm height, respectively. Preforms, each being formed into a bottle of 500 ml, were supplied to the conveyer by the number of 860 bottles/min., and the conveyer was driven at a predetermined speed.
(§2) In the above Table 4, term “B” is an abbreviated term of “BaciLLus subtiLis”, and “A.nig.” is an abbreviated term of “AspergiLLus niger”. “D” is a D-valve indicating the sterilization effect.

[2] = system: AspergiLLus niger
Procedure: as §1, §2

[3] = system: BaciLLus subtiLis; details: then superheated steam 300° C. 5 sec. to inner surface
Procedure: (§3) Mist of hydrogen peroxide water was produced by supplying hydrogen peroxide water of 35% concentration and pressurized air to a two-fluid spray, the thus produced mist was mixed with hot air having temperature of 60° C., and then, the mist of the hydrogen peroxide water was sprayed inside a chamber through a nozzle. The chamber has a size of 600 mm width, and a conveyer has 1.5 m length. Preforms, each being formed into a bottle of […], were supplied to the conveyer by the number of 860 bottles/min., and the conveyer was driven at a speed of 0.2/sec. […] Furthermore, preforms, each being formed into a bottle of […], were supplied by the number of 250 bottles/min., and the same operation was performed. […] Such preforms were subjected to the following treatment.
(§4) Superheated steam of flow amount of 0.7 g/sec. generated by heating water by a superheated steam generator of induction heating system was sprayed to each inner surface of the preform from a nozzle having inner diameter of 8 mm at blasting temperature of 300° C. for 5 sec.
(§5) In the above Table 1, term “B” is an abbreviated term of “BaciLLus subtiLis”, and “A.nig.” is an abbreviated term of “AspergiLLus niger”. “D” is a D-valve indicating the sterilizing effect.

[4] = system: AspergiLLus niger; details: then superheated steam 300° C. 5 sec. to inner surface
Procedure: as §3, §4, §5

[5] = system: BaciLLus subtiLis; remark: listed apart in the source
Procedure: The hydrogen peroxide water adhered to each preform having inner volume of 500 ml for bottle as in the first example 1. Furthermore, superheated steam of flow amount of 0.7 g/sec. generated by heating water by a superheated steam generator of an induction heating system was sprayed to the inner surface of each preform from a nozzle having inner diameter of 8 mm at blasting temperature in a range of 180 to 550° C. for 10 to 3 sec.
Further, it is to be noted that, in the above Table 3, the sterilization effect is shown with [∘] (good) in the case where the D-value with respect to BaciLLus subtiLis is not less than 6, and the other cases are shown with [x] (not good). With respect to the deformation of the inner diameter, in the case where the inner diameter of the preform is deformed by less than 0.05 mm is shown [∘] (good), and the other cases are shown with [x] (not good).

[6] = system: BaciLLus subtiLis; details: 35% hydrogen peroxide water mist mixed with 60° C. hot air, about 50 mg per preform
Procedure: (§6) Mist of hydrogen peroxide water was produced by supplying hydrogen peroxide water of 35% concentration and pressurized air to a two-fluid spray, the thus produced mist was mixed with hot air having temperature of 60° C., and then, the mist of the hydrogen peroxide water was sprayed inside a chamber through a nozzle. The chamber is a box-shaped member, having no bottom, having a size of 1,000 mm width, 1,500 mm length and 200 mm height, and the box-shaped chamber was set to a predetermined position on the conveyer having 600 mm width. Preforms of the number of 860 bottles/min., each being formed into a bottle of […], were supplied to the conveyer, which is driven at a speed of 0.2/sec.

[7] = preform molded into a bottle and filled with water
Procedure: as §6

[8] = hydrogen peroxide 3%, hot air NO, superheated steam 400° C., 0.2 m/sec.
[9] = preform for 2 L, 35% mist about 150 mg
[10] = preform for 500 mL, 35% mist about 50 mg

OO [hydrogen peroxide]
sterilization effect B. sub. ([1]; hydrogen peroxide 3%, hot air 100° C., superheated steam 200° C., 0.2 m/sec.): 5.3D
sterilization effect B. sub. ([1]; hydrogen peroxide 3%, hot air 100° C., superheated steam 400° C., 0.2 m/sec.): 6.0D
sterilization effect B. sub. [1, 8]: 4.0D
sterilization effect B. sub. ([1]; hydrogen peroxide 10%, hot air 80° C., superheated steam 400° C., 0.2 m/sec.): 6.0D
sterilization effect B. sub. ([1]; hydrogen peroxide 10%, hot air NO, superheated steam 400° C., 0.5 m/sec.): 5.5D
sterilizing effect with respect to the B.sub ([1]; preheating performed and superheated steam added with hydrogen peroxide blasted (summary of Table 4)): more than 6.0 D
sterilization effect A. niger [2, 8]: 6.0D
sterilizing effect with respect to the A. niger ([2]; superheated steam added with hydrogen peroxide, regardless of the preheating by hot air (summary of Table 4)): more than 6.0 D
sterilizing effect B. sub. [3, 9]: 3.0D
sterilizing effect B. sub. [3, 10]: 3.1D
sterilizing effect A. nig [4, 9]: More than 6.0D
sterilizing effect A. nig [4, 10]: More than 6.0D
Sterilizing Effect ([5]; hydrogen peroxide water as in Example 1, then superheated steam 180° C., 10 sec.): X (the other cases are shown with [x] (not good))
Sterilizing Effect ([5]; hydrogen peroxide water as in Example 1, then superheated steam 250° C., 6 sec.): ◯ ([∘] (good) in the case where the D-value with respect to BaciLLus subtiLis is not less than 6)
Sterilizing Effect ([5]; hydrogen peroxide water as in Example 1, then superheated steam 350° C., 4 sec.): ◯ ([∘] (good) in the case where the D-value with respect to BaciLLus subtiLis is not less than 6)
Sterilizing Effect ([5]; hydrogen peroxide water as in Example 1, then superheated steam 450° C., 3 sec.): ◯ ([∘] (good) in the case where the D-value with respect to BaciLLus subtiLis is not less than 6)
Sterilizing Effect ([5]; hydrogen peroxide water as in Example 1, then superheated steam 550° C., 3 sec.): ◯ ([∘] (good) in the case where the D-value with respect to BaciLLus subtiLis is not less than 6)
sterilizing power ([6]; inner surface of the preform): 4.2 D
sterilizing power ([6]; outer surface of the preform): 5.3 D
remaining amount of the hydrogen peroxide [7]: 0.012 ppm
